Measurements from the supplement of paper PMC10307832.

Experiments:
Test in all cases: relative viability (nuclei count vs DMSO), 5 days (fraction); higher = more cells survive
Darinaparsin + Dasatinib = compound: C[As](C)SC[C@H](NC(=O)CC[C@H](N)C(=O)O)C(=O)NCC(=O)O [Darinaparsin] + Cc1nc(Nc2ncc(C(=O)Nc3c(C)cccc3Cl)s2)cc(N2CCN(CCO)CC2)n1 [Dasatinib] (partner 0.075 µM)
Method in brief: (§1)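 Lung cancer cell lines were pin-tool dosed in 1536-well plates on the day after seeding, with either a lone drug or a fixed anchor-drug dose plus five library-drug doses (not always all listed) in √10 steps. Nuclei were counted on 4× images after 5 days. Relative viability is the ratio of treated-well to vehicle-well nuclei counts, with each value a median of duplicate plates.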

AZ628 + Lapatinib = compound: CC1=C(C=C(C=C1)NC(=O)C2=CC(=CC=C2)C(C)(C)C#N)NC3=CC4=C(C=C3)N=CN(C4=O)C [AZ628] + CS(=O)(=O)CCNCc1ccc(-c2ccc3ncnc(Nc4ccc(OCc5cccc(F)c5)c(Cl)c4)c3c2)o1 [Lapatinib] (partner 2 µM)
Method in brief: as §1

AZ628 + Crizotinib = compound: CC1=C(C=C(C=C1)NC(=O)C2=CC(=CC=C2)C(C)(C)C#N)NC3=CC4=C(C=C3)N=CN(C4=O)C [AZ628] + C[C@@H](Oc1cc(-c2cnn(C3CCNCC3)c2)cnc1N)c1c(Cl)ccc(F)c1Cl [Crizotinib] (partner 1 µM)
Method in brief: as §1

Cell Line	relative viability (Darinaparsin + Dasatinib; first compound 0.08 µM)	relative viability (Darinaparsin + Dasatinib; first compound 0.8 µM)	relative viability (Darinaparsin + Dasatinib; first compound 2.53 µM)	relative viability (Darinaparsin + Dasatinib; first compound 8 µM)	relative viability (AZ628 + Lapatinib; first compound 0.08 µM)	relative viability (AZ628 + Lapatinib; first compound 0.253 µM)	relative viability (AZ628 + Lapatinib; first compound 0.8 µM)	relative viability (AZ628 + Lapatinib; first compound 2.53 µM)	relative viability (AZ628 + Lapatinib; first compound 8 µM)	relative viability (AZ628 + Crizotinib; first compound 0.08 µM)	relative viability (AZ628 + Crizotinib; first compound 0.253 µM)	relative viability (AZ628 + Crizotinib; first compound 0.8 µM)	relative viability (AZ628 + Crizotinib; first compound 2.53 µM)	relative viability (AZ628 + Crizotinib; first compound 8 µM)
NCI-H1793	0.421	0.366	0.348	0.424	0.927	0.627	0.573	0.665	0.579	–	–	–	–	–
HARA	0.3	0.282	0.232	0.259	0.742	0.633	0.57	0.671	0.488	0.904	1.05	0.951	0.82	0.476
NCI-H2347	0.286	–	0.306	0.289	0.8	0.89	0.902	0.836	0.457	0.689	0.832	0.709	0.589	0.443
ABC-1	0.56	0.451	0.572	0.715	1.04	1.09	1.08	1.16	0.985	1.37	1.25	0.844	1.02	0.808
NCI-H2342	0.358	0.302	0.296	0.312	–	–	–	–	–	–	–	–	–	–
NCI-H2126	0.56	0.616	0.556	0.681	0.758	0.857	0.834	0.752	0.89	1.04	0.98	1.06	1.07	1.03
HOP-62	0.708	0.786	0.434	0.693	1.12	0.978	1.01	0.957	0.631	1.06	0.834	0.926	1.16	0.412
NCI-H2085	0.238	0.25	0.235	0.223	0.824	0.685	0.795	0.741	0.743	0.84	0.928	0.912	0.911	0.69
NCI-H1944	0.203	0.2	0.208	0.192	0.855	0.892	0.831	0.747	0.701	1.2	1.09	0.97	0.973	0.878
EMC-BAC-2	0.34	0.368	0.302	0.35	0.9	0.853	0.817	0.844	0.933	0.809	0.759	0.76	0.795	0.874
NCI-H2228	0.71	0.606	0.447	0.686	1.11	1.13	0.784	0.9	1.17	0.372	0.486	0.5	0.41	0.531
A-427	0.843	0.809	0.707	0.733	1.1	0.599	0.99	1.06	0.773	0.641	0.74	0.69	0.665	0.251
EPLC-272H	–	0.275	0.223	0.371	0.837	0.88	1.08	0.932	0.54	0.904	0.957	0.848	0.851	0.813
A549	–	–	–	–	1.13	0.839	0.676	0.835	0.536	0.702	0.728	0.697	0.712	0.382
NCI-H358	0.135	0.157	0.17	0.162	0.446	0.422	0.404	0.432	0.339	0.393	0.435	0.583	0.51	0.32
NCI-H2009	0.307	0.32	0.266	0.233	0.548	0.799	0.469	0.715	0.294	0.848	0.722	0.524	0.703	0.292
HCC-827	0.268	0.397	0.243	0.309	0.238	0.172	0.208	0.191	0.191	0.883	0.946	0.928	0.921	0.865
NCI-H322M	0.269	0.233	0.251	0.257	0.674	0.737	0.747	0.646	0.657	0.819	1.04	1.01	0.795	0.856
NCI-H1755	0.438	0.448	0.346	0.468	0.99	0.951	0.96	1.04	1.02	0.809	0.818	0.786	0.811	0.769
LU99A	0.627	0.59	0.473	0.519	0.973	0.966	1.11	0.943	0.573	0.601	0.505	0.586	0.566	0.286
HCC-44	–	–	–	–	0.982	1.06	1.01	1.02	0.844	0.801	0.857	0.961	0.912	0.721
EBC-1	–	–	–	–	0.219	0.205	0.251	0.22	0.199	0.201	0.212	0.169	0.197	0.168
NCI-H647	0.21	0.205	0.149	0.233	1.25	1.02	0.982	1.19	0.894	1.24	1.03	1.04	0.984	0.793
NCI-H1734	0.461	0.441	0.44	0.49	1.08	1.07	0.896	0.908	0.699	0.561	0.574	0.568	0.621	0.381
NCI-H1993	0.68	0.532	0.535	0.575	0.883	0.78	0.766	0.834	0.838	0.933	0.943	0.873	0.77	0.729
NCI-H23	0.909	0.836	0.714	0.843	1.18	0.958	0.698	0.722	0.528	0.498	0.49	0.347	0.493	0.456
NCI-H1623	0.574	0.548	0.518	0.553	–	–	–	–	–	–	–	–	–	–

Cell Line	relative viability (Darinaparsin + Dasatinib; first compound 0.08 µM)	relative viability (Darinaparsin + Dasatinib; first compound 0.8 µM)	relative viability (Darinaparsin + Dasatinib; first compound 2.53 µM)	relative viability (Darinaparsin + Dasatinib; first compound 8 µM)	relative viability (AZ628 + Lapatinib; first compound 0.08 µM)	relative viability (AZ628 + Lapatinib; first compound 0.253 µM)	relative viability (AZ628 + Lapatinib; first compound 0.8 µM)	relative viability (AZ628 + Lapatinib; first compound 2.53 µM)	relative viability (AZ628 + Lapatinib; first compound 8 µM)	relative viability (AZ628 + Crizotinib; first compound 0.08 µM)	relative viability (AZ628 + Crizotinib; first compound 0.253 µM)	relative viability (AZ628 + Crizotinib; first compound 0.8 µM)	relative viability (AZ628 + Crizotinib; first compound 2.53 µM)	relative viability (AZ628 + Crizotinib; first compound 8 µM)
NCI-H1355	0.717	0.69	0.596	0.689	0.974	0.934	0.947	0.944	0.862	1.04	1.05	0.971	0.89	0.768
NCI-H2170	0.65	0.612	0.481	0.647	0.3	0.279	0.248	0.268	0.278	1.23	1.19	1.12	1.15	1.21
NCI-H2405	0.203	0.232	0.223	0.221	0.733	0.59	0.487	0.487	0.515	0.478	0.66	0.522	0.588	0.568
NCI-H2023	0.724	0.656	0.352	0.729	0.914	0.859	0.914	0.763	0.689	0.638	0.663	0.622	0.635	0.478
PC-3 [JPC-3]	1.11	1	0.826	1.01	0.488	0.5	0.52	0.47	0.471	0.941	1.04	1	1.06	0.922
LXF-289	0.228	0.204	0.164	0.213	0.882	0.884	0.79	0.843	0.58	0.791	0.749	0.768	0.76	0.497
NCI-H1437	0.482	0.375	0.286	0.48	0.858	0.735	0.738	0.94	0.97	0.869	0.822	0.899	0.995	0.932
NCI-H838	0.301	0.286	0.271	0.338	1.05	0.992	0.572	0.956	1.04	0.84	0.842	0.719	0.747	0.655
NCI-H1703	–	–	–	–	0.763	0.393	0.389	0.246	0.286	0.538	0.672	0.405	0.204	0.192
NCI-H1563	0.379	0.442	0.5	0.479	1.11	0.965	1.07	0.868	0.939	0.892	0.825	0.872	0.833	0.938
NCI-H650	0.529	0.515	0.42	0.486	1.2	0.778	1.08	1.2	0.898	0.771	0.73	0.553	0.68	0.599
LK-2	0.201	–	0.301	0.274	1.06	0.56	0.885	0.799	0.537	0.192	0.197	0.244	0.203	0.224
NCI-H520	0.215	0.237	0.189	0.212	0.901	0.857	0.743	0.778	0.766	0.707	0.788	0.601	0.833	0.576
H3255	0.355	0.346	0.317	0.338	0.258	0.256	0.292	0.269	0.251	0.926	0.921	0.949	0.866	0.704
PC-14	0.189	0.24	0.245	0.211	0.347	0.365	0.351	0.313	0.343	0.909	0.839	1.04	0.976	0.726
HCC-78	0.382	0.384	0.375	0.386	0.81	0.725	0.961	0.703	0.479	0.404	0.403	0.38	0.413	0.4
CAL-12T	0.337	0.381	0.234	0.315	0.884	–	0.599	0.616	0.573	0.871	–	0.565	0.622	0.361
Calu-6	–	–	–	–	1.2	0.981	0.629	0.844	0.222	0.753	0.678	0.605	0.577	0.153
SW 900	0.512	0.454	0.654	0.514	–	–	–	–	–	–	–	–	–	–
NCI-H1299	–	–	–	–	1.11	1.2	1.17	1.23	0.945	1.1	1.06	1.16	1.16	0.651
NCI-H522	0.853	0.902	0.804	0.918	–	–	–	–	–	–	–	–	–	–
ChaGo-K-1	0.525	0.611	0.72	0.649	–	–	–	–	–	1.18	–	1.15	1.11	1.16
LCLC-103H	0.577	0.449	0.409	0.533	–	–	–	–	–	1.13	1.08	1.11	1.09	1.01
NCI-H1395	0.438	0.377	0.427	0.405	1.04	1	0.942	0.933	0.916	–	–	–	–	–
NCI-H441	0.6	0.581	0.558	0.737	–	–	–	–	–	0.809	0.569	0.541	0.694	0.78
IA-LM	–	–	–	–	0.881	0.831	0.315	0.373	0.2	0.971	0.749	0.678	0.829	0.18
